Like-named read-outs stand apart in the source and are kept apart here.
Key:
[1] = system: NCI-H292 lung cancer cells; test: FDA drug screening, complete media vs cholesterol-free media without statin (TABLE 1); format: cell-based, human
[2] = system: NCI-H292 lung cancer cells; test: FDA drug screening, complete media vs cholesterol-free media with simvastatin (TABLE 2); format: cell-based, human
[3] = Complete minus Cholesterol-free, >0 enhanced anti-cancer activity, about 0 neutral, <0 antagonist
[4] = NCI-H292 cells, cholesterol-free media without statin, FDA drug library screen
[5] = NCI-H292 cells, complete media, FDA drug library screen
[6] = NCI-H292 cells, FDA drug library screen, cholesterol-free media with simvastatin 0.04 μM
[7] = NCI-H292 cells, FDA drug library screen, complete media
[8] = complete media minus cholesterol-free media + simvastatin, >0 enhanced anti-cancer activity, about 0 neutral, <0 antagonist
[9] = NCI-H292 cells, cholesterol-free media without statin
[10] = complete vs cholesterol-free media, greater than 0 enhanced anti-cancer activity, about 0 neutral, below 0 antagonists
[11] = NCI-H292 cells, cholesterol-free media with simvastatin 0.04 μM, cell growth value in FDA drug screen
[12] = NCI-H292 cells, complete media, cell growth value in FDA drug screen
[13] = complete media vs cholesterol-free media + simvastatin (0.04 μM), >0 enhanced anti-cancer activity, about 0 neutral, <0 antagonist
[14] = complete media minus cholesterol-free media + simvastatin (0.04 μM), >0 enhanced anti-cancer activity, about 0 neutral, <0 antagonist
[15] = Complete minus Cholesterol-free, […]
[16] = NCI-H292 cells, cholesterol-free media with simvastatin 0.04 μM, […]
[17] = NCI-H292 cells, complete media, […]
[18] = complete media minus cholesterol-free media + simvastatin, […]
[19] = complete vs cholesterol-free media, […]
[20] = complete media vs cholesterol-free media + simvastatin (0.04 μM), […]
[21] = NCI-H292 cells, drug in cholesterol-free media with simvastatin 0.04 μM
[22] = NCI-H292 cells, drug in complete media
[23] = NCI-H292 cells, complete media, FDA drug library screen (TABLE 2)
[24] = complete media minus cholesterol-free media + simvastatin (0.04 μM), […]
[25] = NCI-H292 cells, cholesterol-free media with simvastatin 0.04 μM, FDA drug library screen (TABLE 2)
[26] = NCI-H292 cells in cholesterol-free media without statin
[27] = NCI-H292 cells in complete media

Sulconazole (nitrate) was tested, and the Difference [1, 3] was 0.04, the Cholesterol-free [1, 4] was 0.9221 and the Complete [1, 5] was 0.9667. For the same substance, the “Cholesterol-free media + simvastatin (0.04 μM)” value [2, 6] was 0.3022, the “Complete Media” value [2, 7] was 0.9753 and the Difference [2, 8] was 0.67.

For Sultamicillin (tosylate), the Cholesterol-free [1, 9] was 1.337, the Complete ([1]; NCI-H292 cells, complete media) was 1.021 and the Difference [1, 10] was −0.32. For the same substance, the “Cholesterol-free media + simvastatin (0.04 μM)” value [2, 11] was 1.072, the “Complete Media” value [2, 12] was 1.191 and the Difference [2, 8] was 0.12.

Sumatriptan (succinate) gave a Cholesterol-free [1] of 0.9558, a Complete [1] of 2.035 and a Difference [1] of 1.08. For the same substance, the “Cholesterol-free media + simvastatin (0.04 μM)” value [2] was 1.195, the “Complete Media” value [2] was 0.8897 and the Difference [2] was −0.31.

With Tafenoquine (Succinate) the Difference [1, 3] was −0.06, the Cholesterol-free [1, 4] was 1.252 and the Complete [1, 5] was 1.196. For the same substance, the “Cholesterol-free media + simvastatin (0.04 μM)” value [2, 6] was 1.136, the “Complete Media” value [2, 7] was 1.045 and the Difference [2, 13] was −0.09.

Tamoxifen (Citrate) showed a Cholesterol-free [1] of 0.4962, a Complete [1] of 0.576 and a Difference [1] of 0.08. The “Cholesterol-free media + simvastatin (0.04 μM)” value [2] was 0.9205, the “Complete Media” value [2] was 0.7671 and the Difference [2] was −0.15.

In the case of Tandospirone (citrate), the Cholesterol-free [1, 9] is reported as 1.167, the Complete ([1]; NCI-H292 cells, complete media) is reported as 0.8565 and the Difference [1, 10] is reported as −0.31. For the same substance, the Difference [2, 14] was 0.00.

Work on Tedizolid (phosphate) yielded a Difference [1, 3] of −0.01, a Cholesterol-free [1, 4] of 0.8406 and a Complete [1, 5] of 0.8345. The “Cholesterol-free media + simvastatin (0.04 μM)” value [2, 11] was 0.7735, the “Complete Media” value [2, 12] was 0.8096 and the Difference [2, 8] was 0.04.

Substance Tegaserod (maleate) has a Difference [1, 15] of −0.26, a Cholesterol-free [1, 9] of 0.9824 and a Complete ([1]; NCI-H292 cells, complete media) of 0.7272. For the same substance, the “Cholesterol-free media + simvastatin (0.04 μM)” value [2, 16] was 0.7216, the “Complete Media” value [2, 17] was 0.7473 and the Difference [2, 18] was 0.03.

Tenofovir alafenamide hemifumarate gave a Cholesterol-free [1] of 0.4256, a Complete [1] of 0.5492 and a Difference [1] of 0.12. The “Cholesterol-free media + simvastatin (0.04 μM)” value [2] was 0.5107, the “Complete Media” value [2] was 0.4195 and the Difference [2] was −0.09.

For Teprenone, the Cholesterol-free [1, 9] was 1.353, the Difference [1, 19] was −0.31 and the “Cholesterol-free media + simvastatin (0.04 μM)” value [2, 6] was 1.117. The “Complete Media” value [2, 7] was 0.9777 and the Difference [2, 20] was −0.14.

In the case of Terbutaline (sulfate), the Difference [1, 3] is reported as −0.29, the Cholesterol-free [1, 9] is reported as 1.263 and the Complete ([1]; NCI-H292 cells, complete media) is reported as 0.9738. The “Cholesterol-free media + simvastatin (0.04 μM)” value [2, 6] was 1.189 and the Difference [2, 13] was −0.15.

Substance Thiamine nitrate has a Difference [1, 3] of −0.26, a Cholesterol-free [1, 9] of 0.9749 and a Complete ([1]; NCI-H292 cells, complete media) of 0.7175. The “Cholesterol-free media + simvastatin (0.04 μM)” value [2, 21] was 0.9067, the “Complete Media” value [2, 22] was 0.7018 and the Difference [2, 13] was −0.20.

Thymopentin (acetate) was tested, and the Cholesterol-free [1, 4] was 0.9838, the Complete [1, 5] was 1.095 and the Difference [1, 19] was 0.11. The “Complete Media” value [2, 23] was 1.151 and the Difference [2, 24] was 0.00.

Toceranib (phosphate) showed a Cholesterol-free [1, 9] of 1.278, a Complete ([1]; NCI-H292 cells, complete media) of 0.9469 and a Difference [1, 10] of −0.33. The “Cholesterol-free media + simvastatin (0.04 μM)” value [2, 6] was 0.9001 and the Difference [2, 8] was 0.14.

For Tocofersolan, the Cholesterol-free [1, 9] was 0.7811, the Complete ([1]; NCI-H292 cells, complete media) was 0.4609 and the Difference [1, 19] was −0.32. For the same substance, the “Cholesterol-free media + simvastatin (0.04 μM)” value [2, 6] was 0.3462, the “Complete Media” value [2, 7] was 0.6285 and the Difference [2, 18] was 0.28.

Tofacitinib (citrate) showed a Difference [1, 3] of −0.26, a Cholesterol-free [1, 9] of 0.8106 and a Complete ([1]; NCI-H292 cells, complete media) of 0.5473. The “Cholesterol-free media + simvastatin (0.04 μM)” value [2, 21] was 0.9122, the “Complete Media” value [2, 22] was 0.6806 and the Difference [2, 13] was −0.23.

In the case of Tolterodine (tartrate), the Cholesterol-free [1] is reported as 1.873, the Complete [1] is reported as 0.9529 and the Difference [1] is reported as −0.92. For the same substance, the “Cholesterol-free media + simvastatin (0.04 μM)” value [2] was 1.183, the “Complete Media” value [2] was 1.127 and the Difference [2] was −0.06.

In the case of Toremifene (citrate), the Complete [1] is reported as 0.7656, the Difference [1] is reported as −0.28 and the “Cholesterol-free media + simvastatin (0.04 μM)” value [2] is reported as 0.4491. The Difference [2] was 0.61.

In the case of Tosufloxacin (tosylate hydrate), the Cholesterol-free [1, 9] is reported as 1.21, the Complete ([1]; NCI-H292 cells, complete media) is reported as 0.8679 and the Difference [1, 10] is reported as −0.34. The “Cholesterol-free media + simvastatin (0.04 μM)” value [2, 6] was 1.004, the “Complete Media” value [2, 7] was 0.9272 and the Difference [2, 13] was −0.08.

Trelagliptin (succinate) showed a Cholesterol-free [1, 9] of 1.469, a Complete ([1]; NCI-H292 cells, complete media) of 1.135 and a Difference [1, 10] of −0.33. For the same substance, the “Cholesterol-free media + simvastatin (0.04 μM)” value [2, 6] was 1.757, the “Complete Media” value [2, 7] was 1.617 and the Difference [2, 13] was −0.14.

Triamcinolone (acetonide) was tested, and the Difference [1, 3] was −0.04, the Cholesterol-free [1, 4] was 0.5663 and the Complete [1, 5] was 0.5288. The “Cholesterol-free media + simvastatin (0.04 μM)” value [2, 25] was 0.6359, the “Complete Media” value [2, 23] was 0.588 and the Difference [2, 14] was −0.05.

Work on Trimebutine (maleate) yielded a Difference [1, 15] of −0.13, a Cholesterol-free ([1]; NCI-H292 cells, FDA drug library screen, cholesterol-free media without statin) of 0.9442 and a Complete [1, 7] of 0.8142. For the same substance, the “Cholesterol-free media + simvastatin (0.04 μM)” value [2, 6] was 0.6516, the “Complete Media” value [2, 7] was 0.9282 and the Difference [2, 18] was 0.28.

Work on Trimipramine (maleate) yielded a Difference ([1]; Complete minus Cholesterol-free, greater than 0 enhanced anti-cancer activity, about 0 neutral, below 0 antagonists) of −0.51, a Cholesterol-free [1, 26] of 1.537 and a Complete [1, 27] of 1.022. The “Cholesterol-free media + simvastatin (0.04 μM)” value [2, 6] was 1.033, the “Complete Media” value [2, 7] was 1.193 and the Difference [2, 8] was 0.16.

Valemetostat (tosylate) gave a Cholesterol-free [1, 9] of 1.464, a Complete ([1]; NCI-H292 cells, complete media) of 1.052 and a Difference [1, 19] of −0.41. For the same substance, the “Cholesterol-free media + simvastatin (0.04 μM)” value [2, 21] was 1.195, the “Complete Media” value [2, 22] was 0.9379 and the Difference [2, 20] was −0.26.

Varenicline (Tartrate) was tested, and the Difference [1, 15] was −0.52, the Cholesterol-free [1, 26] was 1.334 and the Complete [1, 27] was 0.8157. The “Cholesterol-free media + simvastatin (0.04 μM)” value [2, 25] was 1.729, the “Complete Media” value [2, 23] was 1.705 and the Difference [2, 24] was −0.02.

For Verteporfin, the Difference [1, 3] was −0.04, the Cholesterol-free [1, 4] was 0.26 and the Complete [1, 5] was 0.2188. For the same substance, the “Cholesterol-free media + simvastatin (0.04 μM)” value [2, 6] was 0.616, the “Complete Media” value [2, 7] was 0.9298 and the Difference [2, 8] was 0.31.

Vinblastine (sulfate) was tested, and the Difference [1, 15] was 0.04, the Cholesterol-free [1, 4] was 0.05138 and the Complete [1, 5] was 0.09114. For the same substance, the “Cholesterol-free media + simvastatin (0.04 μM)” value [2, 6] was 0.2181, the “Complete Media” value [2, 7] was 0.1119 and the Difference [2, 20] was −0.11.

Vincristine (sulfate) showed a Difference [1, 15] of 0.02, a Cholesterol-free [1, 4] of 0.04497 and a Complete [1, 5] of 0.06722. The “Cholesterol-free media + simvastatin (0.04 μM)” value [2, 25] was 0.1488, the “Complete Media” value [2, 23] was 0.1119 and the Difference [2, 24] was −0.04.

For Vitamin B12, the Difference [1, 15] was −0.19, the Complete ([1]; NCI-H292 cells, complete media) was 0.9199 and the “Cholesterol-free media + simvastatin (0.04 μM)” value [2, 16] was 1.198. The “Complete Media” value [2, 17] was 1.289 and the Difference [2, 18] was 0.09.

Vonoprazan (Fumarate) showed a Cholesterol-free [1, 4] of 1.164, a Complete [1, 5] of 1.405 and a Difference [1, 19] of 0.24. For the same substance, the “Complete Media” value ([2]; NCI-H292 cells, FDA library drug in complete media) was 0.7838 and the Difference [2, 20] was −0.27.

Source: patent US20250144067A1, “PERSONALIZED STARVATION THERAPY FOR CANCER” (Faeth Therapeutics, Inc., priority 2021, published 2025)
